Results taken from patent US20070060573A1, “Acyltryptophanols” (priority 2005, published 2007).

What follows are compounds tested against T1, human FSH receptor (Homo sapiens, UniProt P23945) (assay: HTRF assay for measuring cAMP in cells, FSH-antagonistic effect (in the presence of hFSH)). Conditions: hFSHR clone 16 cells (CHO cells stably transfected with the human FSH receptor), in the presence of 1e-9 mol/l hFSH, 37° C. for 2 h.
T1 construct: expressed in transfected cells; host or cells: CHO cells (hFSHR clone 16)
T1 sequence (P23945 18-695): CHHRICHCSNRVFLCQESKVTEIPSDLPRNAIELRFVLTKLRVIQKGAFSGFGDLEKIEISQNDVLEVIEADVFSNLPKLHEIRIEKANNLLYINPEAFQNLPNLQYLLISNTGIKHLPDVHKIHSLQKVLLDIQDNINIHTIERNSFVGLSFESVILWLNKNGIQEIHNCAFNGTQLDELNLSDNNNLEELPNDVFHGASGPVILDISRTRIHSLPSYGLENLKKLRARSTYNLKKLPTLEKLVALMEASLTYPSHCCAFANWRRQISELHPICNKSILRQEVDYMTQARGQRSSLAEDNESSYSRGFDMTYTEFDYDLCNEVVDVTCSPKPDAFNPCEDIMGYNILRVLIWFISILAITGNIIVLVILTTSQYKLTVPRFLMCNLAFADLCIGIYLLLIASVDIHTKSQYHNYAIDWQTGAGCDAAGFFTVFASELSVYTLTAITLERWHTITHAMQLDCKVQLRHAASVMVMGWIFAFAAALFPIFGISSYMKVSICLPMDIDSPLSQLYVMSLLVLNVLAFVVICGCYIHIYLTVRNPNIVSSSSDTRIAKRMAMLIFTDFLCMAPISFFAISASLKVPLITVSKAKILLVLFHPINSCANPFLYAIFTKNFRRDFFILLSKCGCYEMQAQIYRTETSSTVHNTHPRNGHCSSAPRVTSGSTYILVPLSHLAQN
Assay type: cell-based
Description: […]

Row | IC50 [nM] | SMILES
1 | 900 | COc1ccc2nc(/C=C/c3ccc(OC)c(OC)c3)cc(C(=O)N[C@@H](CO)Cc3c[nH]c4ccccc34)c2c1 [Example 38, 2-[(E)-2-(3,4-Dimethoxyphenyl)ethenyl]-N-[(R)-1-(hydroxymethyl)-2-(1H-indol-3-yl)ethyl]-6-methoxyquinoline-4-carboxamide]
2 | 300 | O=C(N[C@@H](CO)Cc1c[nH]c2ccccc12)c1cc(-c2ccc3c(c2)OCO3)ccc1OC1CCCC1 [Example 418, 5-Benzo[1,3]dioxol-5-yl-2-cyclopentyloxy-N-[(R)-1-hydroxymethyl-2-(1H-indol-3-yl)ethyl]benzamide]
3 | 7000 | COc1ccc2nc(CCc3ccc(OC)c(OC)c3)cc(C(=O)N[C@@H](CO)Cc3c[nH]c4ccccc34)c2c1 [Example 96, 2-[2-(3,4-dimethoxyphenyl)ethyl]-N-[(R)-1-(hydroxymethyl)-2-(1H-indol-3-yl)ethyl]-6-methoxyquinoline-4-carboxamide]

Further lines, the compound ahead of its results:

Row | SMILES | IC50 [nM]
4 | COc1ccc2nc(-c3cc4c(F)cccc4o3)cc(C(=O)N[C@@H](CO)Cc3c[nH]c4ccccc34)c2c1 [Example 120, 2-(4-Fluorobenzofuran-2-yl)-N-[(R)-1-(hydroxymethyl)-2-(1H-indol-3-yl)ethyl]-6-methoxyquinoline-4-carboxamide] | 1500
5 | COc1ccc2nc(-c3cc(OC)c(OC)c(OC)c3)cc(C(=O)N[C@@H](CO)Cc3cn(C)c4ccccc34)c2c1 [Example 22, N-[(R)-1-(Hydroxymethyl)-2-(1-methyl-1H-indol-3-yl)ethyl]-6-methoxy-2-(3,4,5-trimethoxyphenyl)quinoline-4-carboxamide] | 300
6 | COc1cc(-c2cc(C(=O)N[C@@H](CO)Cc3c[nH]c4ccccc34)c3nc[nH]c3c2)cc(OC)c1OC [Example 361, 6-(3,4,5-Trimethoxyphenyl)-1H-benzoimidazole-4-carboxylic acid [(R)-2-hydroxy-1-(1H-indol-3-ylmethyl)ethyl]amide] | 4000
